According to paper PMC9798707, “Targeting SOST using a small-molecule compound retards breast cancer bone metastasis” (Molecular Cancer, 2022):

Molecular target: T1, SOST (Homo sapiens, UniProt Q9BQB4)
T1 construct: commercial recombinant SOST (SinoBio 10593-H07H), biotinylated and immobilized on Octet SSA biosensors
T1 sequence (Q9BQB4 24-213): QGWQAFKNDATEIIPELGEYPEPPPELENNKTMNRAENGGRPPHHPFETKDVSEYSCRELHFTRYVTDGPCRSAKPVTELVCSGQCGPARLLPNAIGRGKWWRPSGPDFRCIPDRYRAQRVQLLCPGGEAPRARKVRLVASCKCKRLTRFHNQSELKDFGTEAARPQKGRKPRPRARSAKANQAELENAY
Test: biochemical
Set-up: biolayer interferometry (Octet K2), compound binding to immobilized biotinylated SOST, multi-concentration
Conditions: multi-concentration BLI, 30 C
Procedure: The affinity of S6 binding to SOST was measured, as described previously using an Octet K2 instrument (ForteBio). All assays were run at 30 °C with continuous shaking of 1000 RPM using the assay buffer of 0.1% BSA, 0.01% Tween-20 and 1% DMSO in PBS. SOST (10,593-H07H, SinoBio, Beijing, China) at 0.15 mg/ml was dissolved in sterile water, biotinylated and immobilized onto the Octet SSA biosensors. S6 (C29H24N6O2S, molecular weight 520.62, Chemdiv, USA) was dissolved in PBS and adjusted to different concentrations for BLI. After each round of association and disassociation, the SOST-contained sensors were washed with the assay buffer for 10 min to remove nonspecifically bound molecules. Raw kinetic data were obtained. The kon and koff values were analyzed using the software provided and the Kd values were calculated, based on double reference subtraction. We next sought to model the interaction of SOST with STAT3 and identify its inhibitors from a small-molecule chemical library (Fig. 4A). […] Subsequently, we performed virtual screening for compounds that might block the binding of SOST to STAT3 (Fig. 4C). We screened approximately 120,000 compounds and obtained 38 candidates. We tested single-concentration of them in BLI test. Data from 35 of these compounds are shown in Figure S4 and SI Table 1, except for compounds 2, 10, and 25, which could not be detected due to poor solubility. […] compounds (6, 11, 12, 17, 22, 24, 34, 38) were screened by multi-concentration gradients to obtain R2, Kd, kdis, and response parameters (Fig. 4D-E, Fig. S5 and SI Table 2). Four compounds, 6, 11, 28, and 34, were selected for drug sensitivity testing (Fig. 4F and Fig. S5). […] S6 boudn to SOST with a high affinity (Fig. 4G).

Cc1ccc(-c2nnc(Nc3ccccc3)c3ccccc23)cc1S(=O)(=O)NCc1nc2ccccc2[nH]1 [compound 6, S6]
Kd: 399 µM | kon: 765 M⁻¹ s⁻¹ | koff (read-out: kdis): 0.305 s⁻¹
